Results on 14 compounds are retold here after US20230365576A1, “BRM Targeting Compounds And Associated Methods Of Use” (Prelude Therapeutics Incorporated, priority 2022, published 2023).

A value given as a limit tells only on which side of the number the result lay.

For one assay, the target named is T1, SMARCA2 (Homo sapiens, UniProt P51531).
T1 construct: SMARCA2-HiBiT knock-in Hela monoclonal cell (CS302366); host or cells: HeLa (CRISPR HiBiT knock-in monoclonal line, heterozygous)
In words: SMARCA2 HiBiT degradation assay in HeLa cells. In kind it is cell-based. The note with it: 18 hours; for DC50: read-out: SMARCA2 IC50; for Dmax: HeLa. Summed up:
(§1)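 Degradation measured as HiBiT luminescence (Nano-Glo lytic reagent) after 18 h compound exposure at 37° C. Cells were HeLa clones carrying heterozygous HiBiT tags on SMARCA2 or SMARCA4, 2500 per well; compounds at 3-fold serial dilution from 10 μM.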
A general note: With HiBiT, luminescence reflects the tagged protein that the partner subunit can reach.

The next assay has as its target T2, SMARCA4 (Homo sapiens, UniProt P51532).
T2 construct: SMARCA4-HiBiT knock-in Hela monoclonal cell (CS3023226) were purchased from Promega; host or cells: HeLa (CRISPR HiBiT knock-in monoclonal line, heterozygous)
In words: SMARCA4 HiBiT degradation assay in HeLa cells. The note with it: 18 hours; for Dmax: HeLa. In kind it is cell-based. Summed up:
as §1

T1 sequence (P51531 whole entry): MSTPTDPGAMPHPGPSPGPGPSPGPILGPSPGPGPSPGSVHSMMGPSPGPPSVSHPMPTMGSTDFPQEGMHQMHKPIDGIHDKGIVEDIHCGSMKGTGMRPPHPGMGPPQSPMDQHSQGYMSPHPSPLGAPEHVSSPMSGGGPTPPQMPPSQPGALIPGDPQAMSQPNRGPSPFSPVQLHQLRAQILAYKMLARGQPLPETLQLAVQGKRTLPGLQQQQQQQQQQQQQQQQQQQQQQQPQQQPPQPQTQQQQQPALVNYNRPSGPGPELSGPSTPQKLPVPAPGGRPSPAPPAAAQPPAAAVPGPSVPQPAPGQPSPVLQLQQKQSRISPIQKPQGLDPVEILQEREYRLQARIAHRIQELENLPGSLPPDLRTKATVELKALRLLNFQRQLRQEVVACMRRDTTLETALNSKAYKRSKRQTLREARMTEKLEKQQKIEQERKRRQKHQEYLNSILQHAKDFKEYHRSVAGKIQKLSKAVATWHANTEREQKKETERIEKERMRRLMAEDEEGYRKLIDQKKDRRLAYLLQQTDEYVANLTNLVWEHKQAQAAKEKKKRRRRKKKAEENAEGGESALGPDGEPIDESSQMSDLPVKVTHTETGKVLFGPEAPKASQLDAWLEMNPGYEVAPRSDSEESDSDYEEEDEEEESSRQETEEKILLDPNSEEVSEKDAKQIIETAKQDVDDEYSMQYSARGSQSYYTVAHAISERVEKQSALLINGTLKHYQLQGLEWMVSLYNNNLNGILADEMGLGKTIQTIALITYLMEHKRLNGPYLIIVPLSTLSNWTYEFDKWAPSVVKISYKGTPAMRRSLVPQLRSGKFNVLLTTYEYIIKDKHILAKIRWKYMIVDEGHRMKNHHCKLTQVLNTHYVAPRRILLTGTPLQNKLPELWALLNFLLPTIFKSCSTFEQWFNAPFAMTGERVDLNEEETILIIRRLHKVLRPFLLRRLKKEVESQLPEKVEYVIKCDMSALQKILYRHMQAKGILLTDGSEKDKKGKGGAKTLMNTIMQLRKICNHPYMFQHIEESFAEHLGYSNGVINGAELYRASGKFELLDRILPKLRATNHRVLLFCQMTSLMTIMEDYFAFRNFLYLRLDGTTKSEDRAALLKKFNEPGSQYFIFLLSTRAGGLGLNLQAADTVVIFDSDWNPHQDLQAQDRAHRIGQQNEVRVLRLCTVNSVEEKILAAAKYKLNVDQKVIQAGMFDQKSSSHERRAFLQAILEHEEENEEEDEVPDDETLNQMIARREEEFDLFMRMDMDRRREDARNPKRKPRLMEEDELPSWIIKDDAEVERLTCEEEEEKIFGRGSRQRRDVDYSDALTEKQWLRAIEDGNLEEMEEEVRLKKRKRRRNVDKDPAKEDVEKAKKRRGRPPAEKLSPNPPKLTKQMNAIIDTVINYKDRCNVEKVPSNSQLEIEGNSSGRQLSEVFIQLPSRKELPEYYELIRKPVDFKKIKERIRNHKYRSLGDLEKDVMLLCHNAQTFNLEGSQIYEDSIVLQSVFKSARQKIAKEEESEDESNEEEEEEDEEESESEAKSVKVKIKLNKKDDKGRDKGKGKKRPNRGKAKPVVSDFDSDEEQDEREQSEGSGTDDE
T2 sequence (P51532 whole entry): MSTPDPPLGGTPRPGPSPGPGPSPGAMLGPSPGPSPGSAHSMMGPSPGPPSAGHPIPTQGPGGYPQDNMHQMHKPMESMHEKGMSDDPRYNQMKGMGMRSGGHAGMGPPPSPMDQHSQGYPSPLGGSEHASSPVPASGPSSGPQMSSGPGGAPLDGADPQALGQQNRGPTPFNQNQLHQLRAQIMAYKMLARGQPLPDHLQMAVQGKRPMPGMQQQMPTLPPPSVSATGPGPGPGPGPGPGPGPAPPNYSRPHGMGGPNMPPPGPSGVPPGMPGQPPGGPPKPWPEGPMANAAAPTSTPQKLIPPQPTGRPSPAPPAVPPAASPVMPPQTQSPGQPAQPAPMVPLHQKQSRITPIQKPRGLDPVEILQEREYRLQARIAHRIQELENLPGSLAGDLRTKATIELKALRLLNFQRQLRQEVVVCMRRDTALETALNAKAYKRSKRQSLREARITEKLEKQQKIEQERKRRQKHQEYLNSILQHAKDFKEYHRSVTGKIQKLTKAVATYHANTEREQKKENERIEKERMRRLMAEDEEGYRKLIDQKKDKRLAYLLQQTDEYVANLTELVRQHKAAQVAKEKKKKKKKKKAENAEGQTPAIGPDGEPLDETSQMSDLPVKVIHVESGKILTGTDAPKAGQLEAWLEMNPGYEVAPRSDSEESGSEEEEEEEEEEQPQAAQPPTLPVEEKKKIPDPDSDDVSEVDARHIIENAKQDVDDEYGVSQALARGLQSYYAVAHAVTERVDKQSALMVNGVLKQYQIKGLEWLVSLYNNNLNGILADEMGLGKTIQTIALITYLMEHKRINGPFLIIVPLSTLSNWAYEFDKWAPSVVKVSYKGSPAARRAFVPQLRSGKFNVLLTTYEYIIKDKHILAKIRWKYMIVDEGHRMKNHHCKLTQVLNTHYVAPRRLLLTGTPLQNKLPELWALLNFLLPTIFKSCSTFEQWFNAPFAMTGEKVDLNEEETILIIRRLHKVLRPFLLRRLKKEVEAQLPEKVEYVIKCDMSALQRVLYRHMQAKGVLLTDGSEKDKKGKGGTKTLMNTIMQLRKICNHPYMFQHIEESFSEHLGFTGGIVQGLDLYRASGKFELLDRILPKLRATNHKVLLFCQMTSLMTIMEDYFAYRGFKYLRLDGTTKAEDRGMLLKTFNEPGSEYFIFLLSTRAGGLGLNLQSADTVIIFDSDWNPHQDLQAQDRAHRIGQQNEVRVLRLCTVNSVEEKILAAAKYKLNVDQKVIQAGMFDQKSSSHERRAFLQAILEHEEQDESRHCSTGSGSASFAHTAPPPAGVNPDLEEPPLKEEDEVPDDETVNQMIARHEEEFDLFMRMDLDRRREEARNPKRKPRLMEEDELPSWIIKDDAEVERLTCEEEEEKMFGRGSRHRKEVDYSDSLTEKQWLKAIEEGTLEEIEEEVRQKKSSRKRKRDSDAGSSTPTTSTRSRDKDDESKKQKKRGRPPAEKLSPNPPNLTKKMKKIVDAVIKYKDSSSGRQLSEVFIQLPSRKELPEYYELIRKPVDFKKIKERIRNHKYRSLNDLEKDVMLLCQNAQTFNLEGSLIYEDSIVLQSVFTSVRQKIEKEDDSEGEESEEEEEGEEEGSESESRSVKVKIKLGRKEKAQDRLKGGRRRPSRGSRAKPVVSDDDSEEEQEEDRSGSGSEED

On to `CC1(C)CC(CN2CCN(c3ccc4c(c3)C(=O)N([C@H]3CCC(=O)NC3=O)C4)CC2)CCN1C(=O)N1CCN2c3cc(-c4cccc(F)c4O)nnc3NCC2(C)C1` (single isomer, unassigned) [Example 124], for which, at SMARCA2, the “SMARCA2 DMax %” value was “A (A=Dmax>75%)” and the DC50 was under 100 nM. For the same compound, at SMARCA4, the DC50 was under 100 nM and the “SMARCA4 DMax %” value was “B (B=50%<Dmax≤75%)”.

Consider `C[C@@H]1CN(CC2CCN(c3ccc4c(c3)C(=O)N(C3CCC(=O)NC3=O)C4)CC2)C[C@H](C)N1C(=O)N1CCN2c3cc(-c4cccc(F)c4O)nnc3NC[C@H]2C1` (stereo partly drawn) [Example 1, 3-(6-(4-(((3R,5S)-4-((S)-2-(3-fluoro-2-hydroxyphenyl)-6,6a,7,8,9,10-hexahydro-5H-pyrazino[1′,2′:4,5]pyrazino[2,3-c]pyridazine-8-carbonyl)-3,5-dimethylpiperazin-1-yl)methyl)piperidin-1-yl)-1-oxoisoindolin-2-yl)piperidine-2,6-dione], for which, at SMARCA2, the DC50 was under 100 nM and the Dmax is over 75%. On SMARCA4, this compound registered a DC50 of under 100 nM and a maximal degradation (Dmax) of under 50%.

For the compound `C[C@@H]1CN(CC2CN(c3ccc4c(c3)C(=O)N(C3CCC(=O)NC3=O)C4)C2)C[C@H](C)N1C(=O)N1CCN2c3cc(-c4cccc(F)c4O)nnc3NC[C@H]2C1` (stereo partly drawn) [Example 2, 3-(6-(3-(((3R,5S)-4-((S)-2-(3-fluoro-2-hydroxyphenyl)-6,6a,7,8,9,10-hexahydro-5H-pyrazino[1′,2′:4,5]pyrazino[2,3-c]pyridazine-8-carbonyl)-3,5-dimethylpiperazin-1-yl)methyl)azetidin-1-yl)-1-oxoisoindolin-2-yl)piperidine-2,6-dione], on SMARCA2, the DC50 is under 100 nM and the Dmax is over 75%. Moreover, on SMARCA4, the DC50 is under 100 nM and the Dmax was under 50%.

Turning to `C[C@@H]1CN(C[C@H]2CN(c3ccc4c(c3)CN(C3CCC(=O)NC3=O)C4=O)CCO2)C[C@H](C)N1C(=O)N1CCN2c3cc(-c4cccc(F)c4O)nnc3NC[C@H]2C1` (stereo partly drawn) [Example 3, 3-(5-((S)-2-(((3R,5S)-4-((S)-2-(3-fluoro-2-hydroxyphenyl)-6,6a,7,8,9,10-hexahydro-5H-pyrazino[1′,2′:4,5]pyrazino[2,3-c]pyridazine-8-carbonyl)-3,5-dimethylpiperazin-1-yl)methyl)morpholino)-1-oxoisoindolin-2-yl)piperidine-2,6-dione], on SMARCA2, the DC50 is under 100 nM and the Dmax is over 75%. Besides, at SMARCA4, the DC50 was under 100 nM and the Dmax was under 50%.

Turning to `C[C@H]1CN2c3cc(-c4cccc(F)c4O)nnc3NC[C@H]2CN1C(=O)N1CCN(CC2CCN(c3ccc4c(c3)C(=O)N(C3CCC(=O)NC3=O)C4)CC2)CC1(C)C` (stereo partly drawn) [Example 4, 3-(6-(4-((4-((6aS,9S)-2-(3-fluoro-2-hydroxyphenyl)-9-methyl-6,6a,7,8,9,10-hexahydro-5H-pyrazino[1′,2′:4,5]pyrazino[2,3-c]pyridazine-8-carbonyl)-3,3-dimethylpiperazin-1-yl)methyl)piperidin-1-yl)-1-oxoisoindolin-2-yl)piperidine-2,6-dione], at SMARCA2, the DC50 was under 100 nM and the Dmax was over 75%. On SMARCA4, this compound showed a DC50 of under 100 nM and a Dmax of under 50%.

As to `CC1(C)CN(CC2CCN(c3ccc4c(c3)C(=O)N(C3CCC(=O)NC3=O)C4)CC2)CCN1C(=O)N1CCN2c3cc(-c4cccc(F)c4O)nnc3NC[C@H]2C1` (stereo partly drawn) [Example 5, 3-(6-(4-((4-((S)-2-(3-fluoro-2-hydroxyphenyl)-6,6a,7,8,9,10-hexahydro-5H-pyrazino[1′,2′:4,5]pyrazino[2,3-c]pyridazine-8-carbonyl)-3,3-dimethylpiperazin-1-yl)methyl)piperidin-1-yl)-1-oxoisoindolin-2-yl)piperidine-2,6-dione], the DC50 at SMARCA2 and at SMARCA4 was under 100 nM in each case. Moreover, the Dmax is over 75% at SMARCA2 and under 50% on SMARCA4.

Consider `C[C@@H]1CN(CC2CCN(c3ccc4c(c3)C(=O)N(C3CCC(=O)NC3=O)C4)CC2)C[C@H](C)N1C(=O)N1CCN2c3cc(-c4cc(F)cc(F)c4O)nnc3NC[C@H]2C1` (stereo partly drawn) [Example 15, 3-(6-(4-(((3R,5S)-4-((S)-2-(3,5-difluoro-2-hydroxyphenyl)-6,6a,7,8,9,10-hexahydro-5H-pyrazino[1′,2′:4,5]pyrazino[2,3-c]pyridazine-8-carbonyl)-3,5-dimethylpiperazin-1-yl)methyl)piperidin-1-yl)-1-oxoisoindolin-2-yl)piperidine-2,6-dione], for which, at SMARCA2, the DC50 was under 100 nM and the Dmax was over 75%. In addition, on SMARCA4, the DC50 is under 100 nM and the Dmax was in the range of 50 to 75%.

On to `C[C@@H]1CN(CC2CCN(c3ccc4c(c3)C(=O)N([C@@H]3CCC(=O)NC3=O)C4)CC2)C[C@H](C)N1C(=O)N1CCN2c3cc(-c4cc(F)cc(F)c4O)nnc3NC[C@H]2C1` [Example 16, (R)-3-(6-(4-(((3S,5R)-4-((S)-2-(3,5-difluoro-2-hydroxyphenyl)-6,6a,7,8,9,10-hexahydro-5H-pyrazino[1′,2′:4,5]pyrazino[2,3-c]pyridazine-8-carbonyl)-3,5-dimethylpiperazin-1-yl)methyl)piperidin-1-yl)-1-oxoisoindolin-2-yl)piperidine-2,6-dione], for which, at SMARCA2, the DC50 is under 100 nM and the Dmax is over 75%. For the same compound, on SMARCA4, the DC50 was under 100 nM and the greatest degradation seen (Dmax) is under 50%.

As for `C[C@@H]1CN(CC2CCN(c3ccc4c(c3)C(=O)N([C@H]3CCC(=O)NC3=O)C4)CC2)C[C@H](C)N1C(=O)N1CCN2c3cc(-c4cc(F)cc(F)c4O)nnc3NC[C@H]2C1` [Example 17, (S)-3-(6-(4-(((3S,5R)-4-((S)-2-(3,5-difluoro-2-hydroxyphenyl)-6,6a,7,8,9,10-hexahydro-5H-pyrazino[1′,2′:4,5]pyrazino[2,3-c]pyridazine-8-carbonyl)-3,5-dimethylpiperazin-1-yl)methyl)piperidin-1-yl)-1-oxoisoindolin-2-yl)piperidine-2,6-dione], the DC50 at SMARCA2 and at SMARCA4 was under 100 nM throughout. The values for the Dmax on SMARCA2 and at SMARCA4 were over 75% and 50 to 75%, respectively.

With `CC1(C)CN(CC2CCN(c3ccc4c(c3)C(=O)N([C@H]3CCC(=O)NC3=O)C4)CC2)CCN1C(=O)N1CCN2c3cc(-c4cc(F)cc(F)c4O)nnc3NC[C@H]2C1` [Example 19, (S)-3-(6-(4-((4-((S)-2-(3,5-difluoro-2-hydroxyphenyl)-6,6a,7,8,9,10-hexahydro-5H-pyrazino[1′,2′:4,5]pyrazino[2,3-c]pyridazine-8-carbonyl)-3,3-dimethylpiperazin-1-yl)methyl)piperidin-1-yl)-1-oxoisoindolin-2-yl)piperidine-2,6-dione], the DC50 at SMARCA2 and on SMARCA4 was under 100 nM throughout. For the same compound, the Dmax on SMARCA2 was over 75%; at SMARCA4 (given as a number) it was 51%.

For `C[C@@H]1CN(CC2CN(c3ccc4c(c3)C(=O)N(C3CCC(=O)NC3=O)C4)C2)C[C@H](C)N1C(=O)N1CCN2c3cc(-c4cc(F)cc(F)c4O)nnc3NC[C@H]2C1` (stereo partly drawn) [Example 20, 3-(6-(3-(((3R,5S)-4-((S)-2-(3,5-difluoro-2-hydroxyphenyl)-6,6a,7,8,9,10-hexahydro-5H-pyrazino[1′,2′:4,5]pyrazino[2,3-c]pyridazine-8-carbonyl)-3,5-dimethylpiperazin-1-yl)methyl)azetidin-1-yl)-1-oxoisoindolin-2-yl)piperidine-2,6-dione], on SMARCA2, the DC50 is under 100 nM and the Dmax was over 75%. In addition, at SMARCA4, the DC50 was under 100 nM and the maximal degradation (Dmax) is under 50%.

In the case of `C[C@@H]1CN(C[C@H]2CN(c3ccc4c(c3)CN(C3CCC(=O)NC3=O)C4=O)CCO2)C[C@H](C)N1C(=O)N1CCN2c3cc(-c4cc(F)cc(F)c4O)nnc3NC[C@H]2C1` (stereo partly drawn) [Example 21, 3-(5-((S)-2-(((3R,5S)-4-((S)-2-(3,5-difluoro-2-hydroxyphenyl)-6,6a,7,8,9,10-hexahydro-5H-pyrazino[1′,2′:4,5]pyrazino[2,3-c]pyridazine-8-carbonyl)-3,5-dimethylpiperazin-1-yl)methyl)morpholino)-1-oxoisoindolin-2-yl)piperidine-2,6-dione], the DC50 on SMARCA2 and on SMARCA4 was under 100 nM throughout. The values for the Dmax on SMARCA2 and on SMARCA4 were over 75% and under 50%, respectively.

For the compound `CC1(C)CN(CC2CCN(c3ccc4c(c3)C(=O)N(C3CCC(=O)NC3=O)C4)CC2)CCN1C(=O)N1CCN2c3cc(-c4cc(F)cc(F)c4O)nnc3NC[C@H]2C1` (stereo partly drawn) [Example 22, 3-(6-(4-((4-((S)-2-(3,5-difluoro-2-hydroxyphenyl)-6,6a,7,8,9,10-hexahydro-5H-pyrazino[1′,2′:4,5]pyrazino[2,3-c]pyridazine-8-carbonyl)-3,3-dimethylpiperazin-1-yl)methyl)piperidin-1-yl)-1-oxoisoindolin-2-yl)piperidine-2,6-dione], the DC50 at SMARCA2 and on SMARCA4 was under 100 nM each time. Also, the figures for the Dmax at SMARCA2 and on SMARCA4 were over 75% and 50 to 75%, respectively.

`CC1(C)CN(CC2CN(c3ccc4c(c3)C(=O)N(C3CCC(=O)NC3=O)C4)C2)CCN1C(=O)N1CCN2c3cc(-c4cc(F)cc(F)c4O)nnc3NC[C@H]2C1` (stereo partly drawn) [Example 23, 3-(6-(3-((4-((S)-2-(3,5-difluoro-2-hydroxyphenyl)-6,6a,7,8,9,10-hexahydro-5H-pyrazino[1′,2′:4,5]pyrazino[2,3-c]pyridazine-8-carbonyl)-3,3-dimethylpiperazin-1-yl)methyl)azetidin-1-yl)-1-oxoisoindolin-2-yl)piperidine-2,6-dione]: on SMARCA2, the DC50 is under 100 nM and the Dmax was over 75%. Further, at SMARCA4, the DC50 was under 100 nM and the Dmax was under 50%.

As a reminder, the Dmax is the greatest extent of degradation seen. A higher Dmax goes with a fuller loss of target.
